Results reported in PMC12024577, “Synthesis and Antiproliferative Effects of Grossheimin-Derived Aminoanalogues” (Biomolecules, 2025).
Like-named read-outs stand apart in the source and are kept apart here.

Tests used:
[1] = test system: Colo205 (doxorubicin-sensitive human colon adenocarcinoma cell line); experiment: MTT assay, cytotoxic effect on Colo205; type: cell-based; details: COLO 205, 24 h incubation
Method: (§1) The doxorubicin-sensitive Colo205 (ATCC-CCL-222) and the doxorubicin-resistant ABCB1- and LRP-expressing Colo320/MDR-LRP (ATCC-CCL-220.1) human colon adenocarcinoma cell lines were obtained from LGC Promochem in Teddington, UK. For culturing, the RPMI 1640 medium was applied and was supplemented with a 10% heat-inactivated foetal bovine serum (FBS), 2 mM L-glutamine, 1 mM Na-pyruvate and 10 mM HEPES along with nystatin and gentamicin.
(§2) The anticancer activity of the compounds was tested in 96-well flat-bottomed microtiter plates. In this assay, the two-fold serial dilutions of the compounds (concentration range: 100–0.19 μM) were made in a 100 μL RPMI 1640 medium. Next, 1 × 10^4 of human colonic adenocarcinoma cells (Colo205 or Colo320) in a 100 μL RPMI 1640 medium were added to each well except for the medium control wells. The starting concentration of the solvent DMSO in the plate was 2% v/v. The samples were incubated at 37 °C for 24 h. At the end of the incubation, 20 μL of an MTT (thiazolyl blue tetrazolium bromide) solution (from a 5 mg/mL stock solution) was pipetted to each well. After incubation at 37 °C for 4 h, 100 μL of a sodium dodecyl sulfate (SDS) solution (10% SDS in 0.01 M HCl) was pipetted to each well, and the plates were kept at 37 °C overnight. The growth of the cells was determined by measuring the optical density (OD) at 540 nm (refering to 630 nm) with a Multiscan EX ELISA reader (Thermo Labsystems, Cheshire, WA, USA). The inhibition of cell growth was calculated as IC50 values, defined as the inhibitory dose that reduces the growth of the cells exposed to the tested compounds by 50%. The IC50 values and the SD of the triplicate experiments were determined using GraphPad Prism software version 5.00 for Windows with a non-linear regression curve fit (GraphPad Software, San Diego, CA, USA; www.graphpad.com). Doxorubicin (from a 2 mg/mL stock solution, Teva Pharmaceuticals, Singapore) served as a positive control.
(§3) Since several sesquiterpene lactone-based aminoadducts exerted a significant cytotoxic action on different human cancer cell lines, the in vitro cytotoxic activities of the prepared grossheimin-based amino analogues were also tested on human colon adenocarcinoma lines, including Colo205 and Colo320 by MTT assay.

[2] = test system: Colo320/MDR-LRP (doxorubicin-resistant ABCB1- and LRP-expressing human colon adenocarcinoma cell line); experiment: MTT assay, cytotoxic effect on Colo320; type: cell-based; details: COLO 320, 24 h incubation
Method: as §1, §2, §3

CDD-19Lu fibroblasts = experiment: Cytotoxic effect on fibroblasts; type: cell-based
Method: as §2
3. Cytotoxic effects of grossheimin-based aminoanalogues
Table S1. Cytotoxic effects of grossheimin-based aminoanalogues on colon adenocarcinoma cell lines and
CDD-19Lu fibroblasts. Doxorubicin (DOX) was applied as a positive control . n.d: not determined. Starting
concentration of grossheimin-based aminoanalogs and DOX in the assay with CDD-19Lu fibroblasts is 100 and […]

MDA-MB-231 = test system: MDA-MB-231; design: method as in doi:10.14188/j.ajsh.2023.03.009; details: cited from earlier work
[3] = test system: colorectal cancer HCT-116 cell lines; design: method as in doi:10.14188/j.ajsh.2023.03.009; details: cited from earlier work
[4] = test system: human colon adenocarcinoma lines, including Colo205 and Colo320; experiment: MTT assay, colon adenocarcinoma lines; type: cell-based; details: text summary over Colo205 and Colo320, read-out: IC50 against colon adenocarcinoma cancers / malignant cell lines
Method: as §1
The anticancer activity of the compounds was tested in 96-well flat-bottomed microtiter plates. In this assay, the two-fold serial dilutions of the compounds (concentration range: 100–0.19 μM) were made in a 100 μL RPMI 1640 medium. Next, 1 × 10^4 of human colonic adenocarcinoma cells (Colo205 or Colo320) in a 100 μL RPMI 1640 medium were added to each well except for the medium control wells. The starting concentration of the solvent DMSO in the plate was 2% v/v. The samples were incubated at 37 °C for 24 h. […] The growth of the cells was determined by measuring the optical density (OD) at 540 nm (refering to 630 nm) with a Multiscan EX ELISA reader (Thermo Labsystems, Cheshire, WA, USA). […] The IC50 values and the SD of the triplicate experiments were determined using GraphPad Prism software version 5.00 for Windows with a non-linear regression curve fit (GraphPad Software, San Diego, CA, USA; www.graphpad.com). […]

[5] = Fibroblast, fibroblasts, Table 2, read-out: IC50 CDD-19Lu
[6] = Homo sapiens, CCD 19Lu, fibroblasts, Table S1, starting concentration 100 (analogues) and 8.62 (DOX), read-out: IC50 CCD-19Lu

SMILES	IC50 ([1]; Table S1)	IC50 ([2]; Table S1)	IC50 (CDD-19Lu fibroblasts; [6])	also measured
C=C1C(=O)O[C@H]2[C@H]1[C@@H](O)CC(=C)[C@@H]1CC(=O)[C@@H](C)[C@H]21 [Compound 1, Grossheimin]	–	–	–	IC50 ([1]; Table 2): 23.3 ± 2.05 µM; IC50 ([2]; Table 2): 27.9 ± 2 µM; IC50 (CDD-19Lu fibroblasts; Fibroblast, read-out: IC50 CDD-19Lu): > 100 µM; IC50 (MDA-MB-231): 16.9 µM; IC50 [3]: 30.9 µM
C=C1C(=O)O[C@H]2[C@H]1[C@@H](OC(C)=O)CC(=C)[C@@H]1CC(=O)[C@@H](C)[C@H]21 [Compound 2]	–	–	–	IC50 ([1]; Table 2): 8.21 ± 0.51 µM; IC50 ([2]; Table 2): 9.44 ± 0.41 µM; IC50 (CDD-19Lu fibroblasts; [5]): > 100 µM; IC50 [4]: ~9 µM
C=C1C[C@H](O)[C@@H]2[C@H](OC(=O)[C@H]2C)[C@H]2[C@H](C)[C@H](O)C[C@@H]12 [Compound 3]	> 100 µM	> 100 µM	> 100 µM	–
C=C1C[C@H](OC(C)=O)[C@@H]2[C@H](OC(=O)[C@H]2C)[C@H]2[C@H](C)[C@@H](OC(C)=O)C[C@@H]12 [Compound 4]	> 100 µM	> 100 µM	> 100 µM	–
C=C1C[C@H](O)[C@@H]2[C@H](OC(=O)[C@H]2CNCc2ccccc2)[C@H]2[C@H](C)C(=O)C[C@@H]12 [Compound 5]	> 100 µM	> 100 µM	> 100 µM	–
C=C1C[C@H](O)[C@@H]2[C@H](OC(=O)[C@H]2CNCc2ccccc2)[C@H]2[C@H](C)[C@@H](O)C[C@@H]12 [Compound 6]	> 100 µM	> 100 µM	> 100 µM	–
C=C1C[C@H](O)[C@@H]2[C@H](OC(=O)[C@H]2CNC=O)[C@H]2[C@H](C)C(=O)C[C@@H]12 [Compound 7]	> 100 µM	> 100 µM	–	–
C=C1C[C@H](O)[C@@H]2[C@H](OC(=O)[C@H]2CSCc2ccccc2)[C@H]2[C@H](C)C(=O)C[C@@H]12 [Compound 8]	> 100 µM	> 100 µM	> 100 µM	–
C=C1C[C@H](O)[C@@H]2[C@H](OC(=O)[C@H]2CSCc2ccccc2)[C@H]2[C@H](C)[C@H](O)C[C@@H]12 [Compound 9]	> 100 µM	> 100 µM	> 100 µM	–
C=C1C[C@H](O)[C@@H]2[C@H](OC(=O)[C@H]2COC)[C@H]2[C@H](C)C(=O)C[C@@H]12 [Compound 10]	> 100 µM	> 100 µM	–	–
C=C1C[C@H](O)[C@@H]2[C@H](OC(=O)[C@H]2Cn2cnc3ccccc32)[C@H]2[C@H](C)C(=O)C[C@@H]12 [Compound 11f]	> 100 µM	> 100 µM	> 100 µM	–
C=C1C(=O)O[C@H]2[C@H]1[C@@H](O)CC(=C)[C@@H]1C[C@H](O)[C@@H](C)[C@H]21 [Compound 12]	–	–	–	IC50 ([1]; Table 2): 63.8 ± 1.32 µM; IC50 ([2]; Table 2): 53.6 ± 1.6 µM; IC50 (CDD-19Lu fibroblasts; [5]): > 100 µM
C=C1C(=O)O[C@H]2[C@H]1[C@@H](OC(C)=O)CC(=C)[C@@H]1C[C@H](OC(C)=O)[C@@H](C)[C@H]21 [Compound 13]	–	–	–	IC50 ([1]; Table 2): 8.21 ± 0.51 µM; IC50 ([2]; Table 2): 6.98 ± 0.29 µM; IC50 (CDD-19Lu fibroblasts; [5]): 29.1 ± 0.46 µM; IC50 [4]: ~8 µM
C=C1C[C@H](O)[C@@H]2[C@H](OC(=O)[C@H]2CNC=O)[C@H]2[C@H](C)[C@@H](O)C[C@@H]12 [Compound 14]	> 100 µM	> 100 µM	–	–
C=C1C[C@H](O)[C@@H]2[C@H](OC(=O)[C@H]2COC)[C@H]2[C@H](C)[C@@H](O)C[C@@H]12 [Compound 15]	> 100 µM	> 100 µM	–	–
C=C1C[C@H](O)[C@@H]2[C@H](OC(=O)[C@H]2Cn2cnc3ccccc32)[C@H]2[C@H](C)[C@@H](O)C[C@@H]12 [Compound 16a]	> 100 µM	> 100 µM	> 100 µM	–
COc1cccc2c1C(=O)c1c(O)c3c(c(O)c1C2=O)C[C@@](O)(C(=O)CO)C[C@@H]3O[C@H]1C[C@H](N)[C@H](O)[C@H](C)O1 [DOX, Doxorubicin, reference compound]	–	–	–	IC50 ([1]; Table 2): 3.21 ± 0.03 µM; IC50 ([2]; Table 2): 4.36 ± 0.08 µM; IC50 (CDD-19Lu fibroblasts; [5]): > 8.62 µM
